Data reported in ChEMBL document CHEMBL1142074, “In vitro activities of cloxyquin (5-chloroquinolin-8-ol) against Mycobacterium tuberculosis” (2007).
≈ marks a conversion by molar mass, not a printed value.

Columns and labels:
Format in all cases: functional
[1] = system: Mycobacterium tuberculosis; experiment: Antimycobacterial activity against Mycobacterium tuberculosis H37Ra ATCC 25177 by microplate alamar blue assay
[2] = system: Mycobacterium tuberculosis; experiment: Antimycobacterial activity against Mycobacterium tuberculosis isolates from pulmonary tuberculosis patient by microplate alamar blue assay
[3] = system: Mycobacterium tuberculosis; experiment: Antimycobacterial activity against Mycobacterium tuberculosis H37Rv ATCC 27294 by microplate alamar blue assay
[4] = system: Mycobacterium tuberculosis; experiment: Antimycobacterial activity against para-aminosalicylic acid-resistant Mycobacterium tuberculosis H37Rv ATCC 35821 by microplate alamar blue assay

SMILES | MIC [1] [µg/mL] | MIC50 [2] [µg/mL] | MIC90 [2] [µg/mL] | MIC [3] [µg/mL] | MIC [4] [µg/mL]
Oc1cccc2cccnc12 [OXYQUINOLINE] | 0.125 (≈ 0.861 µM) | – | – | – | –
Cc1ccc2c(Cl)cc(Cl)c(O)c2n1 [CHLORQUINALDOL] | 0.38 (≈ 1.67 µM) | – | – | – | –
Oc1c(I)cc(Cl)c2cccnc12 [CLIOQUINOL] | 6.25 (≈ 20.5 µM) | – | – | – | –
Oc1c(Br)cc(Br)c2cccnc12 [BROXYQUINOLINE] | 6.25 (≈ 20.6 µM) | – | – | – | –
Oc1ccc(Cl)c2cccnc12 [CLOXYQUIN] | 0.125 (≈ 0.696 µM) | 0.125 (≈ 0.696 µM) | 0.25 (≈ 1.39 µM) | 0.125 (≈ 0.696 µM) | 0.125 (≈ 0.696 µM)
